Measured values as given in article PMC12156185, “Synthesis of Cyclic Hexapeptides via the Hydrazide Method and Evaluation of Their Antibacterial Activities” (Molecules, 2025).
Converted amounts (≈) assume the structure as drawn. Where a SMILES comes first, the peptide text is derived from it.

Experiments:
Format in all cases: cell-based
Candida tropicalis = experiment: Scanning electron microscopy of treated cells; settings: 4 MIC (32 μM for Cy-f2, 128 μM for Cy-f4), 1 h, 30 °C, 5000× magnification; clotrimazole as positive control
Description: (§1) To investigate the morphological effects of the cyclic peptides Cy-f2 and Cy-f4 on Klebsiella pneumoniae and Candida tropicalis, scanning electron microscopy (SEM) was performed (Figure 7). […] Untreated cells served as controls. Samples were fixed, dehydrated, and coated with gold for SEM imaging at 5000× magnification. Effects on Klebsiella pneumoniae (Panel A). […] The bactericidal efficacy of Cy-f2 and Cy-f4 against Klebsiella pneumoniae was verified through comparative evaluation of the treatment group and the positive control group. Effects on Candida tropicalis (Panel B) untreated C. tropicalis cells in the control group appeared as smooth, spherical to oval-shaped yeast cells with intact cell walls.
(§2) According to the method of He with adjustments, bacteria were grown to the logarithmic phase and then washed and resuspended in sterile PBS to an OD600 of 0.4. They were incubated with an equal volume of AMPs at 4× MIC for 1 h. After incubation, the bacterial pellets were washed three times with PBS and centrifuged at 3500 rpm for 4 min. The pellets were then fixed overnight in 2.5% (w/v) glutaraldehyde. The bacterial samples were dehydrated using a series of ethanol solutions with increasing concentrations (30%, 50%, 70%, 90%, and 100%). After dehydration, the samples were dried and sputter-coated with gold. Bacterial fragmentation was observed using scanning electron microscopy (HITACHI SU5000, Tokyo, Japan). Untreated bacterial suspensions served as the negative control.

[1] = system: Staphylococcus aureus (BNCC 186335)
Description: (§3) The antimicrobial and antifungal activities of 11 cyclic hexapeptides (Cy-f1 to Cy-f11) were evaluated by determining their minimum inhibitory concentrations (MICs) against a panel of pathogens (Figure 4). These pathogens included Gram-negative bacteria (Escherichia coli, Klebsiella pneumoniae, Pseudomonas aeruginosa), Gram-positive bacteria (Staphylococcus aureus, Bacillus subtilis, Staphylococcus aureus [MRSA], […]), and fungi (Candida tropicalis, Cryptococcus neoformans).
(§4) The antibacterial activity of peptide analogs was tested against different bacterial strains, all purified cyclotides underwent antibacterial testing against Gram-positive bacterium Staphylococcus aureus (BNCC 186335), Bacillus subtilis (BNCC 109047), and Staphylococcus aureus (MRSA, BNCC 330041), Gram-negative bacteria, including Acinetobacter baumannii (BNCC 337173), Pseudomonas aeruginosa (BNCC 125486), and […]. Fungi included Candida parapsilosis (BNCC 336515) and Candida tropicalis (BNCC 340288). All the above strains are from the Henan Provincial Engineering Research Center of Industrial Microorganisms (Henan, China). Escherichia coli (ATCC 25922) and Klebsiella pneumoniae (CMCC(B) 46117) were sourced from Guangzhou HuanKai Microbial Technology Co., Ltd. (Guangzhou, China). The peptides’ MIC was determined using the Clinical and Laboratory Standards Institute broth dilution procedure with slight modifications.
(§5) Colonies of these bacterial strains were grown in respective agar media, then inoculated in Mueller Hinton (MH) broth and incubated at 37 °C overnight. The peptide solutions were first diluted 1 in 100 (from the stock solution at 20 mM) and then further two-fold dilution in MH broth in a sterile 96-well plate was performed, resulting in 100 µL of broth containing increasing concentrations. Bacteria in their exponential growth phase were diluted in MH broth, and 100 µL of this suspension was added in each well. […] Then, these plates were incubated at 37 °C for 20–22 h.
(§6) Each test was performed at least three times. MIC (minimum inhibitory concentration) values were determined as the concentrations of peptides that caused >99% inhibition of bacterial growth.

[2] = system: Pseudomonas aeruginosa (BNCC 125486)
Description: as §3, §4, §5, §6

[3] = system: Acinetobacter baumannii (BNCC 337173)
Description: as §3, §4, §5, §6

[4] = system: Staphylococcus aureus (MRSA, BNCC 330041)
Description: as §3, §4, §5, §6

[5] = system: Klebsiella pneumoniae (CMCC(B) 46117)
Description: as §3, §4, §5, §6

[6] = system: Bacillus subtilis (BNCC 109047)
Description: as §3, §4, §5, §6

[7] = system: Escherichia coli (ATCC 25922)
Description: as §3, §4, §5, §6

[8] = system: Cryptococcus neoformans (BNCC 225501); settings: BNCC 225501, 48 h
Description: as §3, §4, §6

[9] = system: Candida tropicalis (BNCC 340288); settings: BNCC 340288, 24 h
Description: as §3, §4
Candida tropicalis was cultured on Sabourad Dextrose Agar (SDA). A single colony was inoculated in YM broth medium and grown overnight at 37 °C while shaking. Peptides were diluted in SDB media by two-fold dilution, resulting in 100 µL of medium containing increasing concentrations. The overnight culture (turbidity at OD600 = 1) was 1000× diluted in SDB. Then 100 µL of this suspension was added to each well, resulting in a final 200 µL suspension containing 2–4 × 10^5 CFU/mL. The plate was incubated at 37 °C for 24 h.
as §6

Klebsiella pneumoniae = experiment: Scanning electron microscopy of treated cells; settings: 4 MIC (64 μM for Cy-f2, 128 μM for Cy-f4), 1 h, 37 °C, 5000× magnification; cefoperazone sodium as positive control
Description: as §1, §2

red blood cells (RBCs) = system: red blood cells (RBCs)
Description: Based on the antimicrobial activity screening, a hemolysis assay was conducted to assess the toxicity of Cy-f1, Cy-f2, and Cy-f4 (Figure 5). For Cy-f1, the hemolysis percentage remained consistently low across all tested concentrations. At 8 μM, Cy-f1 induced approximately 0.12% hemolysis. […] For Cy-f2, the hemolysis percentage also remained consistently low across all tested concentrations. At 8 μM, Cy-f2 induced approximately 0.3% hemolysis, and Cy-f2 stayed stable at 0.3% at 16 μM and 32 μM. […] At 8 μM, it induced approximately 0.7% hemolysis, […]. However, hemolysis increased slightly with higher concentrations, reaching approximately […] and 1.1% at 16 μM and 32 μM, respectively. […] In this experiment Triton X-100 was used as a positive control with a hemolysis rate of 100%.
Figure S4. SEM images of RBCs treated with Cy-f1, Cy-f2, and Cy-f4. (A) SEM images of RBCs
treated with Cy-f1. (B) SEM images of RBCs treated with Cy-f2. (C) SEM images of RBCs treated […]

Row | SMILES | MIC against S. aureus [1] [µM] | MIC against P. aeruginosa [2] [µM] | MIC against A. baumannii [3] [µM] | MIC against MRSA [4] [µM] | MIC against K. pneumoniae [5] [µM] | MIC against B. subtilis [6] [µM] | MIC against E. coli [7] [µM] | MIC against C. neoformans [8] [µM] | MIC against C. tropicalis [9] [µM] | Cell morphology of C. tropicalis by SEM (Candida tropicalis) | Cell morphology of K. pneumoniae by SEM (Klebsiella pneumoniae) | Morphology of red blood cells by SEM (red blood cells (RBCs))
1 | Clc1ccccc1C(c1ccccc1)(c1ccccc1)n1ccnc1 [clotrimazole, reference compound] | – | – | – | – | – | – | – | – | – | fragmentation and shrinkage | – | –
2 | CCN1CCN(C(=O)N[C@@H](C(=O)N[C@@H]2C(=O)N3C(C(=O)O)=C(CSc4nnnn4C)CS[C@H]23)c2ccc(O)cc2)C(=O)C1=O [cefoperazone sodium, reference compound] | – | – | – | – | – | – | – | – | – | – | surface roughening, cell shrinkage, and partial membrane disruption | –
3 | CC[C@H](C)[C@@H]1NC(=O)[C@H](CCCCN)NC(=O)[C@H](CC(C)C)NC(=O)[C@H](CC(C)C)NC(=O)[C@H](CS)NC(=O)[C@H](Cc2ccccc2)NC1=O [Cy-f1] (cyclo(CLLKIF)) | 8 (≈ 5.74 µg/mL) | 128 (≈ 91.9 µg/mL) | 32 (≈ 23 µg/mL) | 16 (≈ 11.5 µg/mL) | 64 (≈ 46 µg/mL) | 4 (≈ 2.87 µg/mL) | 64 (≈ 46 µg/mL) | 16 (≈ 11.5 µg/mL) | 64 (≈ 46 µg/mL) | – | – | maintained well-preserved cell morphology
4 | CC[C@H](C)[C@@H]1NC(=O)[C@H](C(C)C)NC(=O)[C@H](CCCNC(=N)N)NC(=O)[C@H](CS)NC(=O)[C@H](CCCNC(=N)N)NC(=O)[C@H]([C@@H](C)CC)NC1=O [Cy-f10] (cyclo(CRVIIR)) | 8 (≈ 5.93 µg/mL) | 128 (≈ 94.8 µg/mL) | – | – | – | – | – | 16 (≈ 11.9 µg/mL) | 128 (≈ 94.8 µg/mL) | – | – | –
5 | CC(C)C[C@@H]1NC(=O)[C@H](CCCCN)NC(=O)[C@H](CS)NC(=O)[C@H](Cc2ccccc2)NC(=O)[C@H](Cc2c[nH]c3ccccc23)NC(=O)[C@H](CCCNC(=N)N)NC1=O [Cy-f4] (cyclo(CKLRWF)) | 16 (≈ 13.3 µg/mL) | 128 (≈ 107 µg/mL) | 64 (≈ 53.4 µg/mL) | 32 (≈ 26.7 µg/mL) | 32 (≈ 26.7 µg/mL) | – | – | 32 (≈ 26.7 µg/mL) | 64 (≈ 53.4 µg/mL) | mild surface roughening and slight deformation but retaining overall structural integrity | extensive membrane rupture, cell deformation, and leakage of intracellular contents | maintained well-preserved cell morphology
6 | CC[C@H](C)[C@@H]1NC(=O)[C@H](CCCCN)NC(=O)[C@H](CC(C)C)NC(=O)[C@H](CCCCN)NC(=O)[C@H](CS)NC(=O)[C@H](Cc2ccccc2)NC1=O [Cy-f3] (cyclo(CKLKIF)) | 16 (≈ 11.7 µg/mL) | 128 (≈ 93.8 µg/mL) | 128 (≈ 93.8 µg/mL) | 32 (≈ 23.5 µg/mL) | 64 (≈ 46.9 µg/mL) | 32 (≈ 23.5 µg/mL) | 64 (≈ 46.9 µg/mL) | 8 (≈ 5.86 µg/mL) | 32 (≈ 23.5 µg/mL) | – | – | –

More lines, main results first:

Row | MIC against S. aureus [1] [µM] | MIC against P. aeruginosa [2] [µM] | MIC against A. baumannii [3] [µM] | MIC against MRSA [4] [µM] | MIC against K. pneumoniae [5] [µM] | MIC against B. subtilis [6] [µM] | MIC against E. coli [7] [µM] | MIC against C. neoformans [8] [µM] | MIC against C. tropicalis [9] [µM] | SMILES | Cell morphology of C. tropicalis by SEM (Candida tropicalis) | Cell morphology of K. pneumoniae by SEM (Klebsiella pneumoniae) | Morphology of red blood cells by SEM (red blood cells (RBCs))
7 | > 200 | > 200 | > 200 | > 200 | > 200 | > 200 | > 200 | > 200 | > 200 | CC[C@H](C)[C@@H]1NC(=O)[C@@H]2CCCN2C(=O)[C@H](CCCCN)NC(=O)[C@H](CCCNC(=N)N)NC(=O)[C@H](CS)NC(=O)[C@H](C(C)C)NC1=O [Cy-f6] (cyclo(CRKPIV)) | – | – | –
8 | 32 (≈ 22.3 µg/mL) | 128 (≈ 89.2 µg/mL) | – | – | – | – | 128 (≈ 89.2 µg/mL) | 16 (≈ 11.2 µg/mL) | 32 (≈ 22.3 µg/mL) | CC(C)C[C@@H]1NC(=O)[C@H](C(C)C)NC(=O)[C@@H]2CCCN2C(=O)[C@H](CCCCN)NC(=O)[C@H](CCCNC(=N)N)NC(=O)[C@H](CS)NC1=O [Cy-f7] (cyclo(CRKPVL)) | – | – | –
9 | > 200 | > 200 | > 200 | > 200 | > 200 | > 200 | > 200 | > 200 | > 200 | CC[C@H](C)[C@@H]1NC(=O)[C@H](CS)NC(=O)[C@H](CC(C)C)NC(=O)[C@H]([C@@H](C)CC)NC(=O)[C@@H]2CCCN2C(=O)[C@H](CCCNC(=N)N)NC1=O [Cy-f9] (cyclo(CIRPIL)) | – | – | –
10 | > 200 | > 200 | > 200 | > 200 | 64 (≈ 44.5 µg/mL) | 64 (≈ 44.5 µg/mL) | > 200 | 128 (≈ 89.1 µg/mL) | 64 (≈ 44.5 µg/mL) | CC[C@H](C)[C@@H]1NC(=O)[C@H](CS)NC(=O)[C@H]([C@@H](C)CC)NC(=O)[C@H]([C@@H](C)CC)NC(=O)[C@@H]2CCCN2C(=O)[C@H](CCCNC(=N)N)NC1=O [Cy-f11] (cyclo(CIRPII)) | – | – | –
11 | 8 (≈ 5.82 µg/mL) | – | – | – | 32 (≈ 23.3 µg/mL) | 8 (≈ 5.82 µg/mL) | 16 (≈ 11.6 µg/mL) | 32 (≈ 23.3 µg/mL) | 16 (≈ 11.6 µg/mL) | CC[C@H](C)[C@@H]1NC(=O)[C@H](CCCNC(=N)N)NC(=O)[C@H](CS)NC(=O)[C@H](CCCNC(=N)N)NC(=O)[C@H](C(C)C)NC(=O)[C@H](C(C)C)NC1=O [Cy-f8] (cyclo(CRIVVR)) | – | – | –
12 | 16 (≈ 11.4 µg/mL) | 128 (≈ 91 µg/mL) | – | – | – | – | 128 (≈ 91 µg/mL) | 32 (≈ 22.8 µg/mL) | 64 (≈ 45.5 µg/mL) | CC[C@H](C)[C@@H]1NC(=O)[C@H]([C@@H](C)CC)NC(=O)[C@@H]2CCCN2C(=O)[C@H](CCCCN)NC(=O)[C@H](CCCNC(=N)N)NC(=O)[C@H](CS)NC1=O [Cy-f5] (cyclo(CRKPII)) | – | – | –
